The text below walks through data of ChEMBL document CHEMBL1201862, “PubChem BioAssay data set” (2004).

The source made the active and inactive calls.

Experiment [1] addresses Protein Rev (Human immunodeficiency virus type 1 group M subtype B (isolate WMJ22)(HIV-1), UniProt P05866). The experiment in a line: inhibitors of Rev protein–RRE RNA complex – biochemical, protein-RNA interaction, dose response (AID 842). Also on record: species or system Human immunodeficiency virus 1.
Experiment [2] deals with Cytochrome P450 3A4 (Homo sapiens, UniProt P08684). Conditions: Potency.
The target in experiment [3] is Cytochrome P450 2C9 (Homo sapiens, UniProt P11712). Conditions: Potency.
A short description of experiment [4]: cells.
Experiment [5] relates to HEK293. Nature of the experiment: TNF Induced NF-kB Luciferase in 293-NF-kB-Luc Stable Cells. [Related pubchem assays: 1266, 1299, 1269, 1373, 1292, 1290, 1302, 1371, 1283, 1270, 1295, 1271, 1375, 1294, 1374, 1281, 1293, 1291, 1289, 1280, 465, 1368, 1364, 1282, 1372, 1365, 1369, 1370, 1367, 1366 ]. The format is functional, cell-based. The settings on record: Homo sapiens.

The subject of experiment [6] is Vero. The experiment in a line: cells. Format: functional. The settings on record: Chlorocebus sabaeus.
The subject of experiment [7] is HEK293. Nature of the experiment: Cytotoxicity assay in HEK293 cells. [Related pubchem assays (depositor defined):AID1266, AID1269, AID1270, AID1271, AID1280, AID1281, AID1282, AID1283, AID1287, AID1289, AID1290, AID1291, AID1292, AID1293, AID1294, AID1295, AID1299, AID1302, AID1364, AID1365, AID1366, AID1367, AID1369, AID1370, AID1371, AID1372, AID1373, AID1374, AID1375, AID1384 …. The settings on record: Homo sapiens. The format is functional, cell-based.

Experiment [8] relates to HEK293. Nature of the experiment: PMA/Ionomycin induced NF-kB luciferase assay in 293- NF-kB-Luc stable cells. [Related pubchem assays: 1299, 1270, 1295, 1375, 1287, 1281, 1293, 1291, 1289, 1280, 465, 1364, 1282, 1372, 1365, 1370, 1367, 1366, 1269, 1373, 1292, 1290, 1302, 1371, 1283, 1271, 1294, 1374, 1368, 1369 ]. The format is functional, cell-based. The settings on record: Homo sapiens.

Experiment [9] relates to HEK293. The experiment in a line: PMA/Ionomycin-induced IL-8 production in HEK293- NF-kB-Luc stable cells. [Related pubchem assays: 1299, 1295, 1375, 1287, 1281, 1293, 1291, 1289, 1280, 465, 1364, 1282, 1372, 1365, 1367, 1366, 1266, 1269, 1373, 1292, 1290, 1302, 1371, 1283, 1271, 1294, 1374, 1368, 1369 ]. Conditions: Homo sapiens. The format is functional, cell-based.
For experiment [10], the target named is Luciferin 4-monooxygenase (Photinus pyralis, UniProt P08659). The experiment in a line: In vitro luciferase assay using purified luciferase. [Related pubchem assays: 1299, 1270, 1295, 1375, 1287, 1281, 1293, 1291, 1289, 1280, 465, 1364, 1282, 1372, 1365, 1370, 1367, 1366, 1266, 1373, 1292, 1290, 1302, 1371, 1283, 1271, 1294, 1374, 1368, 1369 ].
Experiment [11] in a line: viability of uninfected HEp-2 cells – cell-based, HTS, cytotoxicity control for RSV inhibitor project, dose response (AID 2410). The format is functional. Conditions: human respiratory syncytial virus.
The test system of experiment [12] is Vero. The experiment in a line: cells. Conditions: Chlorocebus sabaeus. The format is functional, cell-based.

Cytochrome P450 2C9, sequence (P11712 whole entry): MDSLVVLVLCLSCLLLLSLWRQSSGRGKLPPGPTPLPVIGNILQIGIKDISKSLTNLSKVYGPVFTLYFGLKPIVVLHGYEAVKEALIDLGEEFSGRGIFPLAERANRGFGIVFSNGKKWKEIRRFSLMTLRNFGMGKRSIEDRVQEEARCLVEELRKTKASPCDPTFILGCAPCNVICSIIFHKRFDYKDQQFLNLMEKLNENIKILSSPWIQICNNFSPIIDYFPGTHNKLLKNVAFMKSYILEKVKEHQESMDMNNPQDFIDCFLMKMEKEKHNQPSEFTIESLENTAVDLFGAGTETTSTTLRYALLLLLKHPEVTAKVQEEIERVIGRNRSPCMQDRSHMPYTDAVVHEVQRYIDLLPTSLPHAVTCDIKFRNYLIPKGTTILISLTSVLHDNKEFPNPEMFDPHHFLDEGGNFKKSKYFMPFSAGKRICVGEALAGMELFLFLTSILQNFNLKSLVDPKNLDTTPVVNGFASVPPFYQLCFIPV
Luciferin 4-monooxygenase, sequence (P08659 whole entry): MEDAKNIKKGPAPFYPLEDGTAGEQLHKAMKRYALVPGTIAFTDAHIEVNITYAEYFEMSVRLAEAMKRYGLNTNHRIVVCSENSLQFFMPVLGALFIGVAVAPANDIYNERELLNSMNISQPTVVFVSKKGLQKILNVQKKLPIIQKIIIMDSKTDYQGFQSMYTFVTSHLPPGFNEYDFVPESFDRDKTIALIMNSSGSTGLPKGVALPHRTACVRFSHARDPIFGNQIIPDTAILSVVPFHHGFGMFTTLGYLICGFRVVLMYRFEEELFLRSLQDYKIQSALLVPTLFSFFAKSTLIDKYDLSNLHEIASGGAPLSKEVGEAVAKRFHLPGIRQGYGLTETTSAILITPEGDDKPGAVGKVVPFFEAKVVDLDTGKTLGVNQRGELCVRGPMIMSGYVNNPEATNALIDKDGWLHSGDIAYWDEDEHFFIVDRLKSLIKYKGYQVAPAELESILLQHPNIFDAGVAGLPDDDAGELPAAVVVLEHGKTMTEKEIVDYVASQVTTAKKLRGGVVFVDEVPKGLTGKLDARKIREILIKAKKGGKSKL
Cytochrome P450 3A4, sequence (P08684 whole entry): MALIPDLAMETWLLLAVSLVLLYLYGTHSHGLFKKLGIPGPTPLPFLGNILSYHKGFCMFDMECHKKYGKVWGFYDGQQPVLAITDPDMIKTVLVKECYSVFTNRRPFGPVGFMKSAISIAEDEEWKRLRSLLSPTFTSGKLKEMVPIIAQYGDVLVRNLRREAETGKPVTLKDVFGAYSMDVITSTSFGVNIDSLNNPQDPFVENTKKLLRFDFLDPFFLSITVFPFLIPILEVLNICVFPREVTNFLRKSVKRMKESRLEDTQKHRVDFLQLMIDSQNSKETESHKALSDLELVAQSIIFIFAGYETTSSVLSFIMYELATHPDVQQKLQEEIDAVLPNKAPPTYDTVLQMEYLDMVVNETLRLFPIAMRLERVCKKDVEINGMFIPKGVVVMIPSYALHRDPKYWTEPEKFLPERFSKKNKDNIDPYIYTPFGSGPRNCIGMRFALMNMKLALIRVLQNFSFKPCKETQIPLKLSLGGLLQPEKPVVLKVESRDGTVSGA
Protein Rev, sequence (P05866 whole entry): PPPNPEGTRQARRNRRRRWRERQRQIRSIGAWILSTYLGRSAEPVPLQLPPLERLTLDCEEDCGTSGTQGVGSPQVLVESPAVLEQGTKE

A word on the IC50: it is the midpoint of a concentration-inhibition curve. On to `COc1ccc(CCNC(C)CCc2ccc(OC)cc2)cc1` (configuration not stated), for which the concentration for half-maximal inhibition (IC50) in [1] is on record as > 79.4 µM (not active).
The term AC50 denotes the concentration at which the activity in the assay is half-maximal. For `CC1CN2C(CCC(C)C2c2ccc(Br)cc2)C(=O)O1` (configuration not stated), the AC50 in experiment [2] is 5.01 µM (inconclusive); in [3], 3.98 µM (inconclusive).
The term EC50 denotes the midpoint of the concentration-response curve. The term CC50 denotes the concentration at which the toxic effect on the cells reaches its halfway point. On to `Cc1oc(-c2ccccc2Cl)nc1CSCC(=O)N1CCCC1`, for which the figures for the concentration for half-maximal inhibition (IC50) in experiment [4] and in experiment [12] were 11 µM (active) and 2.28 µM (active), respectively. Further, the EC50 is > 8 µM (not active) in experiment [5]; > 8 µM (inactive) in experiment [7]; < 4 µM (active) in experiment [8]; 11.1 µM (not active) in experiment [9]; > 8 µM (not active) in experiment [10]. Also, the CC50 in experiment [6] is > 25 µM (active); in experiment [11] it was 16 µM (active).
